The results in this text go back to patent US11518764B2, “Substituted heteroaryls as inhibitors of the BCL6 BTB domain protein-protein interaction” (Ontario Institute for Cancer Research (OICR), priority 2018, dated 2022).

For assay [1], the system named is Karpas422 cells. In words: Tumor cell growth inhibition assay. The format is cell-based. The conditions noted are these: Homo sapiens, KARPAS-422, 144 h, read-out: Tumor Growth Inhibition in Karpas-422 (IC50, uM), Karpas422 cells, six days, ATPlite. Summed up: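 Growth inhibition was measured by ATPlite luminescence after six days of culture at 37° C. in 5% CO2. Karpas422 cells were seeded at 2,000 per well in Alpha-MEM plus 10% FBS. Compounds were given as a 10-point concentration series with a highest dose of 5 uM.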
On the technique in general: In ATP-based viability assays light output follows the ATP content of the culture.

In assay [2] the test system is BCL6 reporter construct (3xBCL6-TK-Luc) in SuDHL4 cells. In words: Cell-based luciferase assay. As to conditions: Homo sapiens, SU-DHL-4, 48 h, read-out: Luciferase-Assay EC50, uM), SuDHL4-3xBCL6-TK-Luc cells, two days, high dose 10 uM. An outline of the steps:
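SuDHL4 cells stably carrying a 3×BCL6-site TK-promoter firefly luciferase reporter, seeded at 15,000 cells/well, were dosed over a 10-point range (top 10 uM) and grown two days at 37 °C, 5% CO2. Luminescence then read after adding neolite reagent at room temperature.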

The target of assay [3] is BCL6 BTB domain (Homo sapiens (Human), UniProt P41182). The assay can be described thus: Surface plasmon resonance (SPR) assay. As to conditions: BCL6 BTB domain captured on SA chip, single cycle kinetics. In kind it is binding. A general note: In SPR one partner is held on a chip, and binding of the other changes the refractive index at the surface.

Take `CN(C)C1CN(c2cc(NC(=O)Cn3cc(-c4cc(Cl)c(O)c(C(N)=O)c4)c4c(=O)n(C)cnc43)c(Cl)cn2)C1` [Compound I-347]: the IC50 in assay [1] is 0.454 µM. Moreover, the concentration giving a half-maximal response (EC50) in assay [2] came to 0.603 µM. In assay [3], this molecule had a Kd of 0.0574 µM.
For `CN1CC2CCC(C1)N2c1cc(NC(=O)Cn2cc(-c3cc(Cl)c(O)c(C(N)=O)c3)c3c(=O)n(C)cnc32)c(Cl)cn1` [Compound I-348], the IC50 in assay [1] is 0.15 µM. Moreover, the 50% effective concentration (EC50) in assay [2] amounted to 0.479 µM. The affinity in assay [3], expressed as Kd, was 0.0134 µM.
For `C[C@H]1CNCCN1c1cc(NC(=O)Cn2cc(-c3cc(C(N)=O)c(O)c4c3OCO4)c3c(=O)n(C)cnc32)c(Cl)c(F)n1` [Compound I-349] the same measures were 0.0873 µM, 0.131 µM and 0.00329 µM.
On to `Cn1cnc2c(c(-c3cc(Cl)c(O)c(C(N)=O)c3)cn2CC(=O)Nc2cc(N3CCOC4(CCC4)C3)ncc2Cl)c1=O` [Compound I-350], for which the 50% inhibitory concentration (IC50) in assay [1] came out at 0.897 µM. The EC50 in assay [2] is 0.486 µM. The molecule further displayed a Kd in assay [3] of 0.0639 µM.
The like results for `Cn1cnc2c(c(-c3cc(Cl)c(O)c(C(N)=O)c3)cn2CC(=O)Nc2cc(N3CC4(CCOC4)C3)ncc2Cl)c1=O` [Compound I-351] were, in that order, 1.2 µM, 0.591 µM and 0.0401 µM.
For `CN1CCN(c2cc(NC(=O)Cn3cc(-c4cc(Cl)c(O)c(C(N)=O)c4)c4c(=O)n(C)cnc43)c(Cl)cn2)C(C)(C)C1` [Compound I-352] the same measures were 0.346 µM, 0.79 µM and 0.0597 µM.
For the molecule `C[C@@H]1CN(c2cc(NC(=O)Cn3cc(-c4cc(C(N)=O)c(O)c(F)c4F)c4c(=O)n(C)cnc43)c(Cl)cn2)C[C@H](C)N1C` [Compound I-353], in assay [1], the IC50 stood at 0.648 µM. Also, the EC50 in assay [2] was found to be 1.35 µM. Further, the equilibrium dissociation constant (Kd) in assay [3] was 0.075 µM.
In the case of `CO[C@@H]1CCN(c2cc(NC(=O)Cn3cc(-c4cc(C(N)=O)c(O)c(F)c4F)c4c(=O)n(C)cnc43)c(Cl)cn2)C1` [Compound I-354], the IC50 in assay [1] came to 1.27 µM. The 50% effective concentration (EC50) in assay [2] is 1.02 µM. In assay [3], this molecule registered a dissociation constant (Kd) of 0.0548 µM.
Turning to `CCN1CCN(c2cc(NC(=O)Cn3cc(-c4cc(C(N)=O)c(O)c5c4OCO5)c4c(=O)n(C)cnc43)c(Cl)c(F)n2)[C@@H](C)C1` [Compound I-357], the IC50 in assay [1] was 0.0288 µM. Also, the EC50 in assay [2] is 0.0322 µM. Further, in assay [3], the Kd was determined as 0.00186 µM.
For `C[C@H]1CN(C2CCC2)CCN1c1cc(NC(=O)Cn2cc(-c3cc(Cl)c(O)c(C(N)=O)c3)c3c(=O)n(C)cnc32)c(Cl)cn1` [Compound I-358] the same measures were 0.341 µM, 0.256 µM and 0.0227 µM.
The like results for `C[C@H]1CN(C2CCC2)CCN1c1cc(NC(=O)Cn2cc(-c3cc(C(N)=O)c(O)c(F)c3F)c3c(=O)n(C)cnc32)c(Cl)cn1` [Compound I-359] were, in that order, 1.34 µM, 0.521 µM and 0.0422 µM.
`CC(C)[C@H]1CN(C)CCN1c1cc(NC(=O)Cn2cc(-c3cc(Cl)c(O)c(C(N)=O)c3)c3c(=O)n(C)cnc32)c(Cl)cn1` [Compound I-360]: in assay [1], the IC50 is 0.778 µM. In addition, the EC50 in assay [2] came out at 0.659 µM. The equilibrium dissociation constant (Kd) in assay [3] amounted to 0.0309 µM.
The like results for `CC(C)[C@H]1CN(C)CCN1c1cc(NC(=O)Cn2cc(-c3cc(C(N)=O)c(O)c(F)c3F)c3c(=O)n(C)cnc32)c(Cl)cn1` [Compound I-361] were, in that order, 1.37 µM, 1.33 µM and 0.0708 µM.
Take `Cn1cnc2c(c(-c3cc(Cl)c(O)c(C(N)=O)c3)cn2CC(=O)Nc2cc(N3CC4CC3CN4CC(F)(F)F)ncc2Cl)c1=O` (stereo not drawn) [Compound I-362]: the half-maximal inhibitory concentration (IC50) in assay [1] was found to be 0.337 µM. For the same molecule, in assay [2], the concentration giving a half-maximal response (EC50) was found to be 0.226 µM. Moreover, in assay [3], the Kd was 0.038 µM.
For `Cn1cnc2c(c(-c3cc(C(N)=O)c(O)c(F)c3F)cn2CC(=O)Nc2cc(N3CC4CC3CN4CC(F)(F)F)ncc2Cl)c1=O` (stereo not drawn) [Compound I-363] the same measures were 1.19 µM, 0.931 µM and 0.0593 µM.
The like results for `CO[C@H]1CN(c2cc(NC(=O)Cn3cc(-c4cc(C(N)=O)c(O)c(F)c4F)c4c(=O)n(C)cnc43)c(Cl)cn2)C[C@H]1F` [Compound I-364] were, in that order, 1.04 µM, 0.819 µM and 0.025 µM.
For `CO[C@@H]1CN(c2cc(NC(=O)Cn3cc(-c4cc(Cl)c(O)c(C(N)=O)c4)c4c(=O)n(C)cnc43)c(Cl)cn2)C[C@@H]1F` [Compound I-365] the same measures were 0.462 µM, 0.281 µM and 0.0174 µM.
Turning to `CO[C@@H]1CN(c2cc(NC(=O)Cn3cc(-c4cc(C(N)=O)c(O)c(F)c4F)c4c(=O)n(C)cnc43)c(Cl)cn2)C[C@@H]1F` [Compound I-366], the IC50 in assay [1] worked out at 0.978 µM. Also, the EC50 in assay [2] turned out to be 0.899 µM. Moreover, the affinity in assay [3], expressed as Kd, was 0.0352 µM.
The like results for `CN1CC2CC1CN2c1cc(NC(=O)Cn2cc(-c3cc(Cl)c(O)c(C(N)=O)c3)c3c(=O)n(C)cnc32)c(Cl)cn1` (stereo not drawn) [Compound I-367] were, in that order, 3.49 µM, 5.3 µM and 0.0419 µM.
The like results for `C[C@H]1CN(C)CCN1c1cc(NC(=O)Cn2cc(-c3cc(Cl)c(O)c(C(N)=O)c3)c3c(=O)n(C)c(C(F)(F)F)nc32)c(Cl)c(F)n1` [Compound I-368] were, in that order, 0.407 µM, 0.369 µM and 0.0835 µM.
For `CN1C(C)(C)CN(c2cc(NC(=O)Cn3cc(-c4cc(C(N)=O)c(O)c(F)c4F)c4c(=O)n(C)cnc43)c(Cl)cn2)CC1(C)C` [Compound I-369] the same measures were 2.8 µM, 2.2 µM and 0.159 µM.
As to `C[C@H]1CN(C2COC2)CCN1c1cc(NC(=O)Cn2cc(-c3cc(Cl)c(O)c(C(N)=O)c3)c3c(=O)n(C)c(C(F)(F)F)nc32)c(Cl)cn1` [Compound I-371], the IC50 in assay [1] was determined as 0.288 µM. Also, the 50% effective concentration (EC50) in assay [2] is 0.141 µM. In assay [3], this molecule showed a dissociation constant Kd of 0.0395 µM.
For `C[C@H]1CN(C2COC2)CCN1c1cc(NC(=O)Cn2cc(-c3cc(F)c(O)c(C(N)=O)c3)c3c(=O)n(C)cnc32)c(Cl)cn1` [Compound I-372] the same measures were 0.267 µM, 0.233 µM and 0.00741 µM.
For `Cc1nc2c(c(-c3cc(Cl)c(O)c(C(N)=O)c3)cn2CC(=O)Nc2cc(N3CCN(C)C[C@@H]3C)nc(F)c2Cl)c(=O)n1C` [Compound I-373] the same measures were 0.105 µM, 0.0803 µM and 0.00596 µM.
For `COCCN1CCN(c2cc(NC(=O)Cn3cc(-c4cc(C(N)=O)c(O)c5c4OCO5)c4c(=O)n(C)cnc43)c(Cl)c(F)n2)[C@@H](C)C1` [Compound I-375] the same measures were 0.0256 µM, 0.0114 µM and 0.00131 µM.
Take `CCN1CCN(c2cc(NC(=O)Cn3cc(-c4cc(Cl)c(O)c(C(N)=O)c4)c4c(=O)n(C)c(C(F)(F)F)nc43)c(Cl)cn2)[C@@H](C)C1` [Compound I-376]: the IC50 in assay [1] was 0.366 µM. For the same molecule, the EC50 in assay [2] is 0.385 µM. Binding in assay [3] was put at a Kd of 0.0734 µM.
For `C[C@H]1CN(CC2(C(F)(F)F)CC2)CCN1c1cc(NC(=O)Cn2cc(-c3cc(C(N)=O)c(O)c(F)c3F)c3c(=O)n(C)cnc32)c(Cl)cn1` [Compound I-377] the same measures were 8.61 µM, 2.97 µM and 0.208 µM.

Usually IC50 stands for the midpoint of a concentration-inhibition curve. In general, EC50 refers to the concentration needed to bring the measured effect to its halfway point. By Kd is commonly meant a measure of binding affinity in units of concentration. A higher Kd goes with weaker binding.
